Measured values: ChEMBL document CHEMBL3817795, “Identification and optimisation of a series of N-(4-anilino-2-pyridyl)acetamide activin receptor-like kinase 1 (ALK1) inhibitors” (Medchemcomm, 2016)
Converted amounts (≈) assume the structure as drawn.

Experiments:
[1] = Solubility of the compound; type: physicochemical
[2] = Lipophilicity, log D of the compound at pH 7.4; type: physicochemical; conditions: buffer

- solubility [1]: 46 µM (≈ 15.3 µg/mL)
- logD [2]: 3.3
Compound: O=C(Nc1cc(Nc2c(Cl)ccc3c2OCO3)ccn1)C1CC1
